According to ChEMBL document CHEMBL1127297, “Isolation and structure/activity features of halomon-related antitumor monoterpenes from the red alga Portieria hornemannii” (1994):

What was measured:
[1] = system: Tumor Cell line; assay: Tested for in vitro cytotoxicity of 60 human tumor cell lines in National Cancer Institute (NCI) and the value was expressed as LC50; format: functional; settings: read-out: LC50 (the source's name)
[2] = system: Tumor Cell line; assay: Tested for in vitro cytotoxicity of 60 human tumor cell lines in National Cancer Institute (NCI); format: functional

SMILES	CC50 [1] [µM]	GI50 [2] [µM]	TGI [2] [µM]
C=C(Cl)[C@](Cl)(CBr)CCC(Cl)=C(C)C	17	0.741	3.39
C=C(Cl)[C@](Cl)(CBr)CC[C@H](Cl)C(C)(C)Br	16.2	1.32	4.47
CC1(C)[C@H](Cl)C=C/C(=C\CCl)[C@@H]1Cl	> 100	20	47.9
CC1(C)C(Cl)CC(Br)/C(=C\CCl)C1Cl (stereo unspecified)	20	1.15	4.68
C=C[C@](Cl)(CBr)CC[C@@H](Br)C(C)(C)Cl	> 100	26.1	77
C=CC1=CCC(Br)C(C)(C)C1Cl (stereo unspecified)	> 100	> 100	> 100
C=CC(Cl)(CBr)CCC=C(C)C (stereo unspecified)	> 100	33.1	> 100
C=C(Cl)[C@](Cl)(CBr)CCC=C(C)C	> 100	47	> 100
CC1(C)C(Br)=C(C(Cl)CBr)CCC1Br (stereo unspecified)	93.3	21.9	45.7
C=C(Cl)/C(=C\Br)CCC=C(C)C	> 100	19.5	44.7
C=C(Cl)[C@](Cl)(CBr)CCC(Br)=C(C)C	13.5	0.691	3.02
C=C(Cl)[C@](Cl)(CBr)CC[C@@H](Br)C(C)(C)Cl [HALOMON]	11.5	0.676	3.02
